In patent US20210221785A1, “AMINO-PYRIMIDONYL DERIVATIVES, A PROCESS FOR THEIR PREPARATION AND PHARMACEUTICAL COMPOSITIONS CONTAINING THEM” (LES LABORATOIRES SERVIER, priority 2018, published 2021):

Legend:
[1] = test system: Z138 mantle cell lymphoma tumour cell lines; test: In vitro cytotoxicity, MTT assay; format: cell-based; conditions: Z138 cells exposed to the test compounds for 96 hours, cell viability vs DMSO treated cells
Protocol: The cytotoxicity studies were evaluated by MTT [3-(4,5-dimethylthiazol-2-yl)-2,5-diphenyltetrazolium bromide] assay and carried out on Z138 mantle cell lymphoma tumour cell lines. The cells are distributed onto microplates and exposed to the test compounds for 96 hours. MTT is then added for 4 hours and converted by NAD(P)H-dependent cellular oxidoreductase enzymes in formazan, which has a purple color. The viable cell number is proportional to the production of formuan salts and cell viability can be quantified by the absorbance of the solution at 540 nm with a speetrophotometer (Carmichael et al., Cancer Res. 1987, 47, 936-942).

[2] = target: T1, His-His-USP7 (aa208-560, |C315A|) (Homo sapiens, UniProt Q93009, C315A); test: Evaluation of the inhibition of USP7 by the Fluorescence Intensity (FLINT) readings; format: biochemical; conditions: 0.25 nM His-His-USP7, compound incubated 60 minutes at 30° C., 500 nM Ubiquitin-Rhodamine-110 substrate; 50% reduction in kinetic rate
T1 construct: His-His-USP7 (aa208-560, |C315A|); His-His (N)
Summary of the method: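 IC50 reflects 50% reduction in kinetic rate of rhodamine-110 release (Ex485/Em535, reads every 3 min over 21 min), normalised to DMSO and no-enzyme controls, from an 11-point 4-parameter fit. Substrate is 500 nM Ub-Rh110, added after 60 min, 30 °C preincubation of compound with 0.25 nM USP7 aa208–560 C315A. Buffer is Bicine pH 8.0 with 10% DMSO.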

T1 sequence (Q93009 208-560 C315A): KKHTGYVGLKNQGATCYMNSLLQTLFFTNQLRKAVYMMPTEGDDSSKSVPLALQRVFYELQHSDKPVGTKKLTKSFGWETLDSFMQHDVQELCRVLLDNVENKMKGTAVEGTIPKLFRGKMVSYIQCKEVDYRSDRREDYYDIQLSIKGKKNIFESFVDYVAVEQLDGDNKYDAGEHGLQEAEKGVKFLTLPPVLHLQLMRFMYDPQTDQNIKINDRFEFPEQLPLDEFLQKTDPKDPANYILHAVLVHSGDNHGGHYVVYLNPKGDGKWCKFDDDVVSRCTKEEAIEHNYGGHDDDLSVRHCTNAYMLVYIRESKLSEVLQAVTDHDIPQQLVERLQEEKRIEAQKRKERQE

## 5-amino-6-(3-chlorophenyl)-3-({1-[(1R,2R)-4,4-difluoro-2-phenylcyclohexane-1-carbonyl]-4-hydroxypiperidin-4-yl}methyl)pyrimidin-4(3H)-one [Example 13]
[1]
  IC50: 0.178 µM
[2]
  IC50: 97.5 nM

## C#C[C@]1(O)CC[C@@H](C(=O)N2CCC(O)(Cn3cnc(Oc4ccc(F)cc4)c(N)c3=O)CC2)[C@H](c2ccccc2)C1 (relative stereo) [Example 92, rel-5-amino-3-[(1-{[(1R,2R,4S)-4-ethynyl-4-hydroxy-2-phenyl-cyclohexyl]carbonyl}-4-hydroxypiperidin-4-yl)methyl]-6-(4-fluorophenoxy)pyrimidin-4-one]
[1]; Homo sapiens, Z-138, 96 h
  IC50: 0.189 µM
[2]
  IC50: 230 nM

## C#CC1(F)CC[C@@H](C(=O)N2CCC(O)(Cn3cnc(Oc4ccc(F)cc4)c(N)c3=O)CC2)[C@H](c2ccccc2)C1 (relative stereo) [Example 93, rel-5-amino-3-({1-[(1R,2R)-4-ethynyl-4-fluoro-2-phenyl-cyclohexanecarbonyl]-4-hydroxypiperidin-4-yl}methyI)-6-(4-fluorophenoxy)-3,4-dihydropyrimidin-4-one]
[1]; Homo sapiens, Z-138, 96 h
  IC50: 0.0411 µM
[2]
  IC50: 66.3 nM

## Nc1c(Oc2ccc(F)cc2)ncn(CC2(O)CCN(C(=O)[C@@H]3CC[C@](O)(Cc4ccccc4)C[C@H]3c3ccccc3)CC2)c1=O (relative stereo) [Example 94, rel-5-amino-3-({1-[(1R,2R,4R)-4-benzyl-4-hydroxy-2-phenyl-cyclohexanecarbonyl]-4-hydroxypiperidin-4-yl}methyl)-6-(4-fluorophenoxy)-3,4-dihydropyrimidin-4-one]
[1]; Homo sapiens, Z-138, 96 h
  IC50: 0.0494 µM
[2]
  IC50: 63.4 nM

## Nc1c(Oc2ccc(F)cc2)ncn(CC2(O)CCN(C(=O)[C@@H]3CC[C@@](O)(Cc4ccccc4)C[C@H]3c3ccccc3)CC2)c1=O (relative stereo) [Example 95, rel-5-amino-3-({1-[(1R,2R,4S)-4-benzyl-4-hydroxy-2-phenyl-cyclohexanecarbonyl]-4-hydroxypiperidin-4-yl}methyl)-6-(4-fluorophenoxy)-3,4-dihydropyrimidin-4-one]
[1]; Homo sapiens, Z-138, 96 h
  IC50: 0.253 µM
[2]
  IC50: 172 nM

## Nc1c(Oc2ccc(F)cc2)ncn(CC2(O)CCN(C(=O)[C@@H]3CC[C@](O)(Cc4ccccn4)C[C@H]3c3ccccc3)CC2)c1=O (relative stereo) [Example 96, rel-5-amino-6-(4-fluorophenoxy)-3-({4-hydroxy-1-[(1R,2R,4R)-4-hydroxy-2-phenyl-4-](pyridin-2-yl)methyl]cyclohexanecarbonyl]piperidin-4-yl}methyl)-3,4-dihydropyrimidin-4-one]
[1]; Homo sapiens, Z-138, 96 h
  IC50: 0.116 µM
[2]
  IC50: 109 nM

## Nc1c(Oc2ccc(F)cc2)ncn(CC2(O)CCN(C(=O)[C@@H]3CC[C@@](O)(Cc4ccccn4)C[C@H]3c3ccccc3)CC2)c1=O (relative stereo) [Example 97, rel-5-amino-6-(4-fluorophenoxy)-3-[(4-hydroxy-1-{[(1R,2R,4S)-4-hydroxy-2-phenyl-4-(pyridin-2-ylmethyl)cyclohexyl]carbonyl}piperidin-4-yl)methyl]pyrimidin-4-one]
[1]; Homo sapiens, Z-138, 96 h
  IC50: 0.497 µM
[2]
  IC50: 38.2 nM

## Nc1c(Oc2ccc(F)cc2)ncn(CC2(O)CCN(C(=O)[C@@H]3CCC(F)(C#CC4CC4)C[C@H]3c3ccccc3)CC2)c1=O (relative stereo) [Example 124, rel-5-amino-3-[(1 -{[(1R,2 R)-4-(2-cyclopropylethynyl)-4-fluoro-2-phenylcyclohexyl]carbonyl}-4-hydroxypiperidin-4-yl)methyl]-6-(4-fluorophenoxy)pyrimidin-1-one]
[1]; Homo sapiens, Z-138, 96 h
  IC50: 0.236 µM
[2]
  IC50: 89.6 nM

## CC#CC1(F)CC[C@@H](C(=O)N2CCC(O)(Cn3cnc(Oc4ccc(F)cc4)c(N)c3=O)CC2)[C@H](c2ccccc2)C1 (relative stereo) [Example 125, rel-5-amino-3-[(1-{[(1R,2R)-4-fluoro-2-phenyl-4-(prop-1-yn-1-yl)cyclohexyl]carbonyl}-4-hydroxypiperidin-4-yl)methyl]-6-(4-fluorophenoxy)pyrimidin-4-one]
[1]; Homo sapiens, Z-138, 96 h
  IC50: 0.0603 µM
[2]
  IC50: 89.5 nM

## Nc1c(Oc2ccc(F)cc2)ncn(CC2(O)CCN(C(=O)[C@@H]3CC[C@@](F)(Cc4ccccn4)C[C@H]3c3ccccc3)CC2)c1=O (relative stereo) [Example 126, rel-5-amino-3-[(1-{[(1R,2R,4S)-4-fluoro-2-phenyl-4-(pyridin-2-ylmethyl)cyclohexyl]carbonyl)}-4-hydroxypiperidin-4-yl)methyl]-6-(4-fluorophenoxy)pyrimidin-4-one]
[1]; Homo sapiens, Z-138, 96 h
  IC50: 0.17 µM
[2]
  IC50: 79.5 nM

## CC(N)c1ccc(Oc2ncn(CC3(O)CCN(C(=O)[C@@H]4CCC(F)(F)C[C@H]4c4ccccc4)CC3)c(=O)c2N)cc1 (single isomer, unassigned; diastereoisomer 1) [Example 54]
[1]; Homo sapiens, Z-138, 96 h
  IC50: 0.273 µM
[2]
  IC50: 7.4 nM

## CC(N)c1ccc(Oc2ncn(CC3(O)CCN(C(=O)[C@@H]4CCC(F)(F)C[C@H]4c4ccccc4)CC3)c(=O)c2N)cc1 (single isomer, unassigned; diastereoisomer 2) [Example 55]
[1]
  IC50: 0.264 µM
[2]
  IC50: 8.69 nM

## Nc1c(Oc2ccccc2)ncn(CC2(O)CCN(C(=O)[C@@H]3CCC(F)(F)C[C@H]3c3ccccc3)CC2)c1=O [Example 1, 5-amino-3-({1-[(1R,2R)-4,4-difluoro-2-phenylcyclohexane-1-carbonyl]-4-hydroxypiperidin-4-yl}methyl)-6-phenoxypyrimidin-4(3H)-one]
[1]; Homo sapiens, Z-138, 96 h
  IC50: 0.0866 µM
[2]
  IC50: 43.7 nM

## COc1ccc(Oc2ncn(CC3(O)CCN(C(=O)[C@@H]4CCC(F)(F)C[C@H]4c4ccccc4)CC3)c(=O)c2N)cc1 [Example 3, 5-amino-3-({1-[(1R,2R)-4,4-difluoro-2-phenylcyclohexane-1-carbonyl]-4-hydroxypiperidin-4-yl}methyl)-6-(4-methoxyphenoxy)pyrimidin-4(3H)-one]
[1]; Homo sapiens, Z-138, 96 h
  IC50: 0.0595 µM
[2]
  IC50: 80.2 nM

## Nc1c(Oc2ccc(F)cc2)ncn(CC2(O)CCN(C(=O)[C@@H]3CCC(F)(F)C[C@H]3c3ccccc3)CC2)c1=O [Example 5, 5-amino-3-({1-[(1R,2R)-4,4-difluoro-2-phenylcyclohexane-1-carbonyl]-4-hydroxypiperidin-4-yl}methyl)-6-(4-fluorophenoxy)pyrimidin-4(3H)-one]
[1]; Homo sapiens, Z-138, 96 h
  IC50: 0.0435 µM
[2]
  IC50: 63.4 nM

## CNc1c(Oc2ccccc2)ncn(CC2(O)CCN(C(=O)[C@@H]3CCC(F)(F)C[C@H]3c3ccccc3)CC2)c1=O [Example 9, 3-({1-[(1R4R)-4,4-difluoro-2-phenylcyclohexane-1-carbonyl]-4-hydroxypiperidin-4-yl}methyl)-5-(methylamino)-6-phenoxypyrimidin-4(3H)-one]
[1]; Homo sapiens, Z-138, 96 h
  IC50: 0.287 µM
[2]
  IC50: 85.8 nM

## Nc1c(Oc2ccc(Cl)cc2)ncn(CC2(O)CCN(C(=O)[C@@H]3CCC(F)(F)C[C@H]3c3ccccc3)CC2)c1=O [Example 11, 5-amino-6-(4-chlorophenoxy)-3-({1-[(1R,2R)-4,4-difluoro-2-phenylcyclohexane-1-carbonyl]-4-hydroxypiperidin-4-yl}methyl)pyrimidin-4(3H)-one]
[1]; Homo sapiens, Z-138, 96 h
  IC50: 0.197 µM
[2]
  IC50: 58.7 nM

## Nc1c(Oc2ccc(F)cc2)ncn(CC2(O)CCN(C(=O)C3CCC(O)(Cc4ccc(F)cc4)CC3c3ccccc3)CC2)c1=O [Example 99, rel-5-amino-6-(4-fluorophenoxy)-3-({1-[(1R,2R,4R)-4-[(4-fluorophenyl))methyl]-4-hydroxy-2-phenylcyclohexanecarbonyl]-4-hydroxypiperidin-4-yl}methyl)-3,4-dihydropyrimidin-4-one]
[1]; Homo sapiens, Z-138, 96 h
  IC50: 0.0128 µM

## Nc1c(Oc2ccc(F)cc2)ncn(CC2(O)CCN(C(=O)[C@@H]3CC[C@@](F)(C#Cc4ccccc4)C[C@H]3c3ccccc3)CC2)c1=O [Example 136, 5-amino-3-({1-[(1R,2R,4S)-4-fluoro-2-phenyl-4-(2-phenylethynyl)cyclobexanecarbonyl]-4-hydroxypiperidin-4-yl}methyl)-6-(4-fluorophenoxy)-3,4-dihydropyrimidin-4-one]
[2]
  IC50: 197 nM

## C#C[C@@]1(OC)CC[C@@H](C(=O)N2CCC(O)(Cn3cnc(Oc4ccc(F)cc4)c(N)c3=O)CC2)[C@H](c2ccccc2)C1 [Example 155, 5-amino-3-[(1-{[(1R,2R,4R)-4-ethynyl-4-methoxy-2-phenylcyclohexyl]carbonyl}-4-hydroxypiperidin-4-yl)methyl]-6-(4-fluorophenoxy)pyrimidin-4-one]
[2]
  IC50: 179 nM

## Nc1c(Oc2ccc(F)cc2)ncn(CC2(O)CCN(C(=O)[C@@H]3CC[C@@](F)(C#Cc4cc(F)ccn4)C[C@H]3c3ccccc3)CC2)c1=O [Example 158, 5-amino-3-({1-[(1R,2R,4S)-4-fluoro-4-[2-(4-fluoropyridin-2-yl)ethynyl]-2-phenylcyclohexanecarbonyl]-4-hydroxypiperidin-4-yl}methyl)-6-(4-fluorophenoxy)-3,4-dihydropyrimidin-4-one]
[2]
  IC50: 67.7 nM

## CO[C@]1(C(=O)N2CCC(O)(Cn3cnc(Oc4ccc(F)cc4)c(N)c3=O)CC2)CC[C@H](C#Cc2nccn2C)C[C@@H]1c1ccccc1 [Example 160, 5-amino-6-(4-fluorophenoxy)-3-[(4-hydroxy-1-{[(1R,2R,4S)-1-methoxy-4-[2-(1-methylimidazol-2-yl)ethynyl]-2-phenylcyclohexyl]carbonyl}piperidin-4-yl)methyl]pyrimidin-4-one]
[2]
  IC50: 138 nM
